Source: publication PMC11611271, “Rapid prediction of key residues for foldability by machine learning model enables the design of highly functional libraries with hyperstable constrained peptide scaffolds” (PLOS Computational Biology, 2024)
Where a SMILES comes first, the peptide text is derived from it. Bridges are numbered along the chain shown (N, C = ends).

Legend:
Type in all cases: binding
[1] = test system: CRD7; experiment: phage spot ELISA on CRD7; details: for ELISA signal: phage spot ELISA of the clone, positive hit: signal > 0.3 and signal/noise > 2; for ELISA s/n: phage spot ELISA signal/noise ratio; for S/N: phage spot ELISA signal/noise; for S/N / ELISA: S3 Table sheet CRD7; for ELISA: phage spot ELISA signal
Text: (§1) To determine the performance of the libraries for ligand discovery we chose a panel of eight protein targets, which have no structural homology and a wide mass range (Fig 7C). We screened these eight targets with solution panning strategy and two additional plate panning for CD8α/β and CD28, thus ten panning campaigns in total. We consider clones showing spot phage ELISA signal > 0.3 and signal/noise ratio > 2 as positive hits. At least one binding hit was discovered for nine out of the ten panning campaigns, surpassing the success rate of the best DCP scaffolds reported previously. We also obtained the NGS data for these screening and the ranking of clones for their enrichment along the rounds of screening was analyzed and considered the top-ranking clones as potential hits. Based on their sequence diversity we selected 16 potential hits spanning five protein targets for peptide synthesis in their linear form. Seven of these are hits with positive phage ELISA signal and nine were selected based on NGS ranking without spot ELISA available. Subsequently, we conducted in vitro folding experiments on these peptides in various buffers. We observed a strong propensity for spontaneous folding regardless of the buffer condition. All HCP hits tested successfully folded into three-disulfide-containing product within two days in a universal buffer system (PBS, pH 7.4, 50% DMSO) without the need for a redox pair, as shown in Fig 8A. The binding of these folded peptides to their respective target proteins was confirmed using SPR (Table 4 and S1 Data) and binding kinetics are exemplified by the high-affinity peptide 5ji4-CRD7-2 (see Fig 8B). Among seven selected ELISA-positive hits, all of them were successfully synthesized and in vitro folded with three disulfide bonds and five were proven to be validated binders by SPR (Table 4). Nine peptides selected from the NGS ranking were synthesized and folded with the expected number of disulfide bonds and five of them bound to their target with affinities in the μM range as determined by SPR (Table 4). In general, binding affinities for these SPR-validated initial hits are weak, with Kd values in the micromolar range and fast on- and off-rates. There are two exceptions with binding affinities in the nanomolar range.
(§2) The 5ji4 libraries were constructed following the Kunkel mutagenesis method and the solution panning protocol was followed as previously described. After four to five rounds of binding selection, while eluted pool was subjected to NGS analysis, individual phage clones were also picked and analyzed with phage spot ELISA. Positive clones were subjected to SANGER sequencing.

[2] = test system: HtrA1; experiment: phage spot ELISA on HtrA1; details: Fig 9A; for ELISA s/n: Spot ELISA signal/noise; for ELISA signal: Spot ELISA
Text: To determine the performance of the libraries for ligand discovery we chose a panel of eight protein targets, which have no structural homology and a wide mass range (Fig 7C). We screened these eight targets with solution panning strategy and two additional plate panning for CD8α/β and CD28, thus ten panning campaigns in total. We consider clones showing spot phage ELISA signal > 0.3 and signal/noise ratio > 2 as positive hits. […] We also obtained the NGS data for these screening and the ranking of clones for their enrichment along the rounds of screening was analyzed and considered the top-ranking clones as potential hits. Based on their sequence diversity we selected 16 potential hits spanning five protein targets for peptide synthesis in their linear form. Seven of these are hits with positive phage ELISA signal and nine were selected based on NGS ranking without spot ELISA available. Subsequently, we conducted in vitro folding experiments on these peptides in various buffers.
as §2
Among these five hits, A7, which is the SANGER hit, was picked for affinity maturation. Following the same strategy, one soft- and one hard-randomization library was designed targeting the 5JI4 variable regions 1 and 2, respectively. Two libraries were each panned as previously described. Both phage spot ELISA coupled with SANGER sequencing and NGS analysis were applied after affinity maturation.

[3] = test system: CD28; experiment: phage spot ELISA on CD28; details: for S/N: phage spot ELISA signal/noise; for ELISA: phage spot ELISA signal
Text: as §1, §2

[4] = S3 Table sheet CD28-1 (panning campaign 1)
[5] = S3 Table sheet CD28-2 (panning campaign 2)

Molecule	S/N [1]	ELISA [1]	further results
CC[C@H](C)[C@@H]1NC(=O)[C@@H]2CCCN2C(=O)[C@@H]2CSSC[C@H](NC(=O)[C@H](CCC(=O)O)NC(=O)[C@H](CCC(=O)O)NC(=O)[C@H](CO)NC(=O)[C@H](CO)NC(=O)[C@H](CCCCN)NC(=O)[C@H](C(C)C)NC(=O)[C@@H]3CCCN3C(=O)[C@H](C(C)C)NC(=O)CNC(=O)[C@H](Cc3ccc(O)cc3)NC(=O)[C@@H]3CCCN3C(=O)[C@H](CCCNC(=N)N)NC1=O)C(=O)N[C@@H](CCC(=O)O)C(=O)N[C@@H](CCCNC(=N)N)C(=O)N[C@@H](CC(C)C)C(=O)N[C@H]1CSSC[C@H](NC(=O)[C@H](CC(N)=O)NC(=O)[C@H]([C@@H](C)O)NC(=O)[C@H](C(C)C)NC(=O)CNC(=O)[C@H](CC(C)C)NC(=O)[C@H](CCCCN)NC(=O)[C@H](CCCNC(=N)N)NC1=O)C(=O)N[C@@H](CCCNC(=N)N)C(=O)N[C@@H](C(C)C)C(=O)N[C@@H](Cc1c[nH]cn1)C(=O)N[C@H](C(=O)NCC(=O)O)CSSC[C@H](NC(=O)[C@@H]1CCCN1)C(=O)N[C@@H](CCC(=O)O)C(=O)N2 [5ji4-CRD7-2] (H-PCECPIRPYGVPVKSSEECERLCRKLGVTNCRVHCG-OH; disulfide 2-35, 4-19, 23-31)			ELISA signal [1]: 0.37; ELISA s/n [1]: 4.60
CSCC[C@@H]1NC(=O)[C@@H]2CSSC[C@H](NC(=O)[C@H]([C@@H](C)O)NC(=O)[C@H]([C@@H](C)O)NC(=O)[C@H](C)NC(=O)[C@H](Cc3c[nH]c4ccccc34)NC(=O)[C@H](CC(=O)O)NC(=O)[C@H](CC(N)=O)NC1=O)C(=O)N[C@@H](CCCNC(=N)N)C(=O)N[C@@H](C(C)C)C(=O)N[C@@H](Cc1c[nH]cn1)C(=O)N[C@H](C(=O)NCC(=O)O)CSSC[C@H](NC(=O)[C@@H]1CCCN1)C(=O)N[C@@H](CCC(=O)O)C(=O)N[C@H]1CSSC[C@H](NC(=O)[C@H](CCC(=O)O)NC(=O)[C@H](CCC(=O)O)NC(=O)[C@H](CO)NC(=O)[C@H](CO)NC(=O)[C@H](CO)NC(=O)[C@H](C(C)C)NC(=O)[C@H]([C@@H](C)O)NC(=O)[C@H](Cc3ccc(O)cc3)NC(=O)[C@H]([C@@H](C)O)NC(=O)[C@H](CCC(=O)O)NC(=O)CNC(=O)[C@H](CC(N)=O)NC(=O)[C@H](C(C)C)NC(=O)[C@H](CC(=O)O)NC1=O)C(=O)NCC(=O)N[C@@H](CCCNC(=N)N)C(=O)N[C@@H](CC(C)C)C(=O)N2 [5ji4-CRD7-3] (H-PCECDVNGETYTVSSSEECGRLCMNDWATTCRVHCG-OH; disulfide 2-35, 4-19, 23-31)			ELISA signal [1]: 0.65; ELISA s/n [1]: 9.52
CSCC[C@@H]1NC(=O)[C@H](CO)NC(=O)[C@@H]2CSSC[C@H](NC(=O)[C@H](CCC(=O)O)NC(=O)[C@H](C)NC(=O)[C@H](CO)NC(=O)[C@H](CO)NC(=O)[C@H]([C@@H](C)O)NC(=O)[C@H](CCSC)NC(=O)[C@H](Cc3ccccc3)NC(=O)[C@H]([C@@H](C)O)NC(=O)[C@H](Cc3c[nH]c4ccccc34)NC(=O)CNC(=O)[C@@H]3CCCN3C(=O)[C@H](CC(C)C)NC1=O)C(=O)N[C@@H](CCC(=O)O)C(=O)N[C@@H](CCCNC(=N)N)C(=O)N[C@@H](CC(C)C)C(=O)N[C@H]1CSSC[C@H](NC(=O)[C@H]([C@@H](C)O)NC(=O)[C@H](CCCNC(=N)N)NC(=O)[C@H](CC(C)C)NC(=O)CNC(=O)[C@H](CC(C)C)NC(=O)[C@H](CCCNC(=N)N)NC(=O)[C@H](CC(=O)O)NC1=O)C(=O)N[C@@H](CCCNC(=N)N)C(=O)N[C@@H](C(C)C)C(=O)N[C@@H](Cc1c[nH]cn1)C(=O)N[C@H](C(=O)NCC(=O)O)CSSC[C@H](NC(=O)[C@@H]1CCCN1)C(=O)N[C@@H](CCC(=O)O)C(=O)N2 [5ji4_A7.B7B2] (H-PCECSMLPGWTFMTSSAECERLCDRLGLRTCRVHCG-OH; disulfide 2-35, 4-19, 23-31)			ELISA s/n [2]: 7.2; ELISA signal [2]: 3.54
CC[C@H](C)[C@@H]1NC(=O)[C@H]([C@@H](C)O)NC(=O)[C@@H]2CSSC[C@H](NC(=O)[C@H](CCC(=O)O)NC(=O)[C@H](C)NC(=O)[C@H](CO)NC(=O)[C@H](CO)NC(=O)[C@H]([C@@H](C)O)NC(=O)[C@H](CC(C)C)NC(=O)[C@H](Cc3ccccc3)NC(=O)[C@H](Cc3c[nH]cn3)NC(=O)[C@H](Cc3c[nH]c4ccccc34)NC(=O)CNC(=O)[C@@H]3CCCN3C(=O)[C@H](CC(C)C)NC1=O)C(=O)N[C@@H](C)C(=O)N[C@@H](CCCNC(=N)N)C(=O)N[C@@H](CC(C)C)C(=O)N[C@H]1CSSC[C@H](NC(=O)[C@H]([C@@H](C)O)NC(=O)[C@H](CCCNC(=N)N)NC(=O)[C@H](CC(C)C)NC(=O)CNC(=O)[C@H](CC(C)C)NC(=O)[C@H](CCCNC(=N)N)NC(=O)[C@H](CC(=O)O)NC1=O)C(=O)N[C@@H](CCCNC(=N)N)C(=O)N[C@@H](C(C)C)C(=O)N[C@@H](Cc1c[nH]cn1)C(=O)N[C@H](C(=O)NCC(=O)O)CSSC[C@H](NC(=O)[C@@H]1CCCN1)C(=O)N[C@@H](CCC(=O)O)C(=O)N2 [5ji4_A7.B9B2] (H-PCECTILPGWHFLTSSAECARLCDRLGLRTCRVHCG-OH; disulfide 2-35, 4-19, 23-31)			ELISA s/n [2]: 7.0; ELISA signal [2]: 3.67
PCECDVNGETYTVSSSEECGRLCMNDWATTCRVHCG [CRD7 clone 7, phage clone, 5JI4 library, CRD7 panning]	14.5714	0.918	
PCECDVNGETYTVSSSEECGRLCMQPWAHTCRVHCG [CRD7 clone 9, phage clone, 5JI4 library, CRD7 panning]	4.522	0.312	
PCECDVNGETYTVSSSEECGRLCMTDWVTSCRVHCG [CRD7 clone 8, phage clone, 5JI4 library, CRD7 panning]	5.905	0.372	
PCECIWANYVGYPFSSEECERLCRKLGVTNCRVHCG [CRD7 clone 3, phage clone, 5JI4 library, CRD7 panning]	2.388	0.289	
PCECNYIPWIWIPQSSEECERLCRKLGVTNCRVHCG [CRD7 clone 5, phage clone, 5JI4 library, CRD7 panning]	3.588	0.244	
PCECPATVHWYFIGSSEECERLCRKLGVTNSRVHCD [CRD7 clone 1, phage clone, 5JI4 library, CRD7 panning]	7.871	0.488	
PCECPIRPYGVPVKSSEECERLCRKLGVTNCRVHCG [CRD7 clone 2, phage clone, 5JI4 library, CRD7 panning]	4.654	0.377	
PCECPSSVYWYFISSSEECERLCRKLGVTNCRVHCG [CRD7 clone 6, phage clone, 5JI4 library, CRD7 panning]	3.75	0.225	
PCECRWMFYSTWELSSEECERLCRKLGVTNCRVHCG [CRD7 clone 4, phage clone, 5JI4 library, CRD7 panning]	4	0.28	
PRECDEDNIWIIANSSEECERLCRKLGVTNCRVHCG [CD28-1 clone 9, phage clone, 5JI4 library, CD28-1 panning]			S/N [3, 4]: 1.511; ELISA [3, 4]: 0.213
PWNANVNGETYTVSSSEECERLCSAGLVNSCRVHCG [CD28-2 clone 1, phage clone, 5JI4 library, CD28-2 panning]			S/N [3, 5]: 7.9375; ELISA [3, 5]: 0.508
PYECWRGQYFIIYKSSEECERLCRKLGVTNCRVHCG [CD28-1 clone 11, phage clone, 5JI4 library, CD28-1 panning]			S/N [3, 4]: 2.209; ELISA [3, 4]: 0.201
RANAFWVVLVPDGGSSEECERLCRKLGVTNCRVHCG [CD28-1 clone 4, phage clone, 5JI4 library, CD28-1 panning]			S/N [3, 4]: 2.932; ELISA [3, 4]: 0.4
RANATEWVPWIIYQSSEECERLCRKLGVTNCRVHCG [CD28-1 clone 2, phage clone, 5JI4 library, CD28-1 panning]			S/N [3, 4]: 5.637; ELISA [3, 4]: 0.5
